Assay results from ChEMBL document CHEMBL3832025, “DailyMed|setid=d3417226-1f42-40cd-82ac-bc31ddf79b97 | OFLOXACIN - ofloxacin tablet, film coated|PD-Rx Pharmaceuticals, Inc”.
“And” between values parts separate entries of the source, which are not always exact repeats. Equal entries are not always repeated.

Experiments:
Type in all cases: ADME, organism-based
[1] = (§1) Steady-state pharmacokinetic parameters for Ofloxacin following multiple oral and intravenous (IV) doses of Ofloxacin to healthy 70 to 80 kg male volunteers.; set-up: dose 200 mg, dose 400 mg, dose 300 mg, route oral, route iv; details: human, in vivo, dosed compound id 33, dosed compound name OFLOXACIN, regimen Multiple dose; for AUC: gender male, tissue Serum
Homo sapiens [2] = experiment: as §1; set-up: dose 200 mg, dose 400 mg, dose 300 mg, route oral, route iv; details: in vivo, dosed compound id 33, dosed compound name OFLOXACIN, gender male, regimen Multiple dose, tissue Serum
[3] = (§2) Pharmcokinetic parameters for Ofloxacin following single oral dose administration of Ofloxacin to healthy male volunteers, body mass 70 to 80 kg.; set-up: dose 300 mg, dose 200 mg, dose 400 mg, route oral; details: human, in vivo, dosed compound id 33, dosed compound name OFLOXACIN, regimen Single dose
Homo sapiens [4] = experiment: as §2; set-up: dose 300 mg, dose 200 mg, dose 400 mg, route oral; details: in vivo, po, dosed compound id 33, dosed compound name OFLOXACIN, gender male, regimen Single dose, tissue Serum
[5] = male, route oral, tissue Plasma

CC1COc2c(N3CCN(C)CC3)c(F)cc3c(=O)c(C(=O)O)cn1c23 (stereo not given) [OFLOXACIN]
AUC ([1]; read-out: AUC(0 to 12) ss): 41200 ng·h/mL
AUC ([1]; read-out: AUC(0 to inf) ss): 61000 ng·h/mL
half-life ([1]; male, route oral, tissue Plasma, read-out: t1/2 ss): 4 to 5 h
AUC(0 to 12) ss (Homo sapiens [2]; study dosing duration 60 minutes): 43500 ng·h/mL
Cmax ss (Homo sapiens [2]; po): 2200 ng/mL and 3600 ng/mL and 4600 ng/mL
Cmax ([3]; po, gender male, tissue Serum): 1500 ng/mL
Tmax [3, 5]: 1 to 2 h
bioavailability [3, 5]: 98%
AUC(0 to inf) (Homo sapiens [4]): 14100 ng·h/mL and 21200 ng·h/mL and 31400 ng·h/mL
Cmax (Homo sapiens [4]): 2400 ng/mL and 2900 ng/mL
